Experimental findings from US12570666B2, “Furoindazole derivatives” (Bayer Aktiengesellschaft, priority 2019, dated 2026) are described below.

The assay concerns the target T1, human GPR84 receptor (Homo sapiens, UniProt Q9NQS5).
T1 construct: frozen aliquots prepared by acCELLerate; host or cells: CHO-K1
The experiment in a line: cAMP HTRF assay for identification of cellular GPR84 antagonists. Format: cell-based. The conditions noted are these: CHO-K1 cells stably expressing human GPR84; Forskolin + agonist 6-OAU (EC80); average or median values. In short, it runs like this: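 IC50 came from 4-parameter fits over 20 μM–0.07 nM (11 points, duplicate), normalized between DMSO (0%) and agonist-free (100% inhibition) wells. Readout: cAMP-d2/Eu-cryptate HTRF in hGPR84 CHO-K1 cells given forskolin plus agonist, compound preincubated 30 min at room temperature.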

Structures are written as SMILES.

T1 sequence (Q9NQS5 whole entry): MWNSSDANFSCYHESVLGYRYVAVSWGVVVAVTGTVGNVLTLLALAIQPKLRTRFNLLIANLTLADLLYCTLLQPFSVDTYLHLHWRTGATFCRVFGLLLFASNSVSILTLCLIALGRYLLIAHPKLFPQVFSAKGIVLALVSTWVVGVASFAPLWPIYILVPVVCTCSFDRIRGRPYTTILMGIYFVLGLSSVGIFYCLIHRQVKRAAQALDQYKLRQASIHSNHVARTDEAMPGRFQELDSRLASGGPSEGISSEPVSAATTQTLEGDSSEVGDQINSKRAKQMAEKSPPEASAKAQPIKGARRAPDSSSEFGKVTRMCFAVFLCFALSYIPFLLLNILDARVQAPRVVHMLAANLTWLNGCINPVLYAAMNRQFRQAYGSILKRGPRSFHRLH

With `Cc1c(C(=O)NCC2CN(C)CCO2)oc2c1-c1nn(Cc3ccccn3)cc1CC2` (single isomer, unassigned) [Example 38-1], the IC50 (as a rule, the midpoint of a concentration-inhibition curve) was determined as 1420 nM. `Cc1c(C(=O)NCC2CCCO2)oc2c1-c1nn(Cc3ccccn3)cc1CC2` (racemic) [Example 3, 8-methyl-2-(pyridin-2-ylmethyl)-N-[(2R/S)-tetrahydrofuran-2-ylmethyl]-4,5-dihydro-2H-furo[2,3-g]indazole-7-carboxamide]: the concentration for half-maximal inhibition (IC50) is 240 nM.

For the compound `Cc1c(C(=O)NC[C@@H]2CCCO2)oc2c1-c1nn(Cc3ncco3)cc1CC2` [Example 188], the IC50 is 223 nM. Take `Cc1cccc(CNC(=O)c2oc3c(c2C(F)(F)F)-c2nn(C[C@H]4COCCO4)cc2CC3)n1` [Example 238, 2-[(2S)-1,4-Dioxan-2-ylmethyl]-N-[(6-methylpyridin-2-yl)methyl]-8-(trifluormethyl)-4,5-dihydro-2H-furo[2,3-g]indazol-7-carboxamide]: the IC50 amounted to 500 nM.

Turning to `O=C(NC[C@@H]1COCCO1)c1oc2c(c1C(F)F)-c1nn(C[C@H]3COCCO3)cc1CC2` [Example 244, 8-(difluoromethyl)-N-{[(2R)-1,4-dioxan-2-yl]methyl}-2-{[(2S)-1,4-dioxan-2-yl]methyl}-4,5-dihydro-2H-furo[2,3-g]indazole-7-carboxamide], the IC50 was found to be 53 nM. Turning to `O=C(NC[C@@H]1COCCO1)c1oc2c(c1C(F)(F)F)-c1nn(C[C@H]3COCCO3)cc1C1(CCC1)C2` [Example 269, N-[(2R)-1,4-dioxan-2-ylmethyl]-2′-[(2S)-1,4-dioxan-2-ylmethyl]-8′-(trifluormethyl)-2′,5′-dihydrospiro[cyclobutan-1,4′-furo[2,3-g]indazol]-7′-carboxamide], the concentration for half-maximal inhibition (IC50) came to 27 nM. Turning to `Cc1c(C(=O)NC[C@H]2COCCO2)oc2c1-c1nn(Cc3ccccn3)cc1CC2` [Example 19-2, N-{[(2S)-1,4-dioxan-2-yl]methyl}-8-methyl-2-[(pyridin-2-yl)methyl]-4,5-dihydro-2H-furo[2,3-g]indazole-7-carboxamide], the 50% inhibitory concentration (IC50) is 830 nM. For the compound `O=C(NC[C@@H]1COCCO1)c1oc2c(c1C(F)(F)F)-c1nn(C[C@@H]3COCCO3)cc1CC2` [Example 220, N,2-bis{[(2R)-1,4-dioxan-2-yl]methyl}-8-(trifluoromethyl)-4,5-dihydro-2H-furo[2,3-g]indazole-7-carboxamide], the half-inhibitory concentration (IC50) is 18 nM. In the case of `O=C(NCCc1nccs1)c1oc2c(c1C(F)(F)F)-c1nn(C[C@H]3COCCO3)cc1CC2` [Example 237, 2-[(2S)-1,4-Dioxan-2-ylmethyl]-N-[2-(1,3-thiazol-2-yl)ethyl]-8-(trifluormethyl)-4,5-dihydro-2H-furo[2,3-g]indazol-7-carboxamide], the IC50 was found to be 496 nM. Consider `Cc1ccc(Cn2cc3c(n2)-c2c(oc(C(=O)NC[C@@H]4COCCO4)c2C)CC3)cn1` [Example 76, N-[(2R)-1,4-dioxan-2-ylmethyl]-8-methyl-2-[(6-methylpyridin-3-yl)methyl]-4,5-dihydro-2H-furo[2,3-g]indazole-7-carboxamide], for which the half-maximal inhibitory concentration (IC50) was determined as 65 nM. `Cc1cccc(Cn2cc3c(n2)-c2c(oc(C(=O)NCC4CCCO4)c2C)CC3)n1` (single isomer, unassigned) [Example 66-2]: the IC50 was 660 nM. Consider `Cc1ccc(Cn2cc3c(n2)-c2c(oc(C(=O)NC[C@@H]4COCCO4)c2C(F)(F)F)CC3C)cn1` (mixture of isomers) [Example 252, (4±)-N-{I(2R)-1,4-dioxan-2-yl]methyl)-4-methyl-2-[(6-methylpyridin-3-yl)methyl]-8-(trifluoromethyl)-4,5-dihydro-2H-furo[2,3-g]indazole-7-carboxamide], for which the IC50 worked out at 9 nM. Consider `Cc1ccc(Cn2cc3c(n2)-c2c(oc(C(=O)NC[C@@H]4CCCO4)c2C)CC3)cn1` [Example 75, 8-methyl-2-[(6-methylpyridin-3-yl)methyl]-N-[(2S)-tetrahydrofuran-2-ylmethyl]-4,5-dihydro-2H-furo[2,3-g]indazole-7-carboxamide], for which the concentration for half-maximal inhibition (IC50) was found to be 60 nM.
